Calls of active or inactive are those of the source. No cut-off for these calls is given here. Bridge positions count the residues as written; N and C are the ends. Square brackets hold non-standard residues; d marks the D form. Peptide text beside a SMILES is read from it. d2Nal = N[C@H](Cc1ccc2ccccc2c1)C(=O)O; Ac6c = NC1(C(=O)O)CCCCC1; Ac5c = NC1(C(=O)O)CCCC1; Ac4c = NC1(C(=O)O)CCC1; Aib = CC(C)(N)C(=O)O
Assays:
[1] = organism: Homo sapiens; experiment: Selectivity ratio of IC50 for human MC1R to IC50 for human MC3R
[2] = target: T1, Melanocyte-stimulating hormone receptor (Homo sapiens, UniProt Q01726); experiment: Displacement of [125I]-NDP-alpha-MSH from human MC1R expressed in HEK293 cells after 40 mins by gamma counting method; format: cell-based
Target sequence in this assay (Q01726 whole entry): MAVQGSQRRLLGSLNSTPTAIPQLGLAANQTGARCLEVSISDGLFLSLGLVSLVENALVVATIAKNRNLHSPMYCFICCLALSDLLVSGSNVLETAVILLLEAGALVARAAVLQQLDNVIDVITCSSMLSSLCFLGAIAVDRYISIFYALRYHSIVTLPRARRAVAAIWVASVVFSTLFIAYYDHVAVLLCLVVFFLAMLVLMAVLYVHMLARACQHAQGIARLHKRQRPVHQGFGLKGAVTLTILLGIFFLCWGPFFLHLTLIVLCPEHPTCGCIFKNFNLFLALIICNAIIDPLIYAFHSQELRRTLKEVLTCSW

[3] = target: T2, Melanocortin receptor 5 (Homo sapiens, UniProt P33032); experiment: Agonist activity at human MC5R expressed in HEK293 cells assessed as induction of intracellular cAMP accumulation after 3 mins; format: functional, cell-based
[4] = target: T1, Melanocyte-stimulating hormone receptor; experiment: Agonist activity at human MC1R expressed in HEK293 cells assessed as induction of intracellular cAMP accumulation at 10 uM measured after 3 mins relative to MT-2; format: functional, cell-based
Target sequence in this assay (Q01726 whole entry, looked up): as the sequence (Q01726 whole entry) above

[5] = target: T3, Melanocortin receptor 3 (Homo sapiens, UniProt P41968); experiment: Displacement of [125I]-NDP-alpha-MSH from human MC3R expressed in HEK293 cells after 40 mins by gamma counting method; format: cell-based
[6] = target: T2, Melanocortin receptor 5; experiment: Agonist activity at human MC5R expressed in HEK293 cells assessed as induction of intracellular cAMP accumulation at 10 uM after 3 mins relative to MT-2; format: functional, cell-based
[7] = target: T2, Melanocortin receptor 5; experiment: Displacement of [125I]-NDP-alpha-MSH from human MC5R expressed in HEK293 cells after 40 mins by gamma counting method; format: cell-based
[8] = target: T4, Melanocortin receptor 4 (Homo sapiens, UniProt P32245); experiment: Displacement of [125I]-NDP-alpha-MSH from human MC4R expressed in HEK293 cells after 40 mins by gamma counting method; format: cell-based
[9] = target: T4, Melanocortin receptor 4; experiment: Agonist activity at human MC4R expressed in HEK293 cells assessed as induction of intracellular cAMP accumulation after 3 mins; format: functional, cell-based
[10] = target: T3, Melanocortin receptor 3; experiment: Agonist activity at human MC3R expressed in HEK293 cells assessed as induction of intracellular cAMP accumulation at 10 uM after 3 mins relative to MT-2; format: functional, cell-based
[11] = target: T4, Melanocortin receptor 4; experiment: Agonist activity at human MC4R expressed in HEK293 cells assessed as induction of intracellular cAMP accumulation at 10 uM after 3 mins relative to MT-2; format: functional, cell-based
[12] = organism: Homo sapiens; experiment: Selectivity ratio of IC50 for human MC5R to IC50 for human MC3R
[13] = target: T1, Melanocyte-stimulating hormone receptor; experiment: Agonist activity at human MC1R expressed in HEK293 cells assessed as induction of intracellular cAMP accumulation measured after 3 mins; format: functional, cell-based
Target sequence in this assay (Q01726 whole entry): as above

[14] = target: T3, Melanocortin receptor 3; experiment: Agonist activity at human MC3R expressed in HEK293 cells assessed as induction of intracellular cAMP accumulation after 3 mins; format: functional, cell-based
[15] = target: T2, Melanocortin receptor 5; experiment: Displacement of [125I]-NDP-alpha-MSH from human MC5R expressed in HEK293 cells at 10 uM after 40 mins by gamma counting method; format: cell-based

T2 sequence (P33032 whole entry): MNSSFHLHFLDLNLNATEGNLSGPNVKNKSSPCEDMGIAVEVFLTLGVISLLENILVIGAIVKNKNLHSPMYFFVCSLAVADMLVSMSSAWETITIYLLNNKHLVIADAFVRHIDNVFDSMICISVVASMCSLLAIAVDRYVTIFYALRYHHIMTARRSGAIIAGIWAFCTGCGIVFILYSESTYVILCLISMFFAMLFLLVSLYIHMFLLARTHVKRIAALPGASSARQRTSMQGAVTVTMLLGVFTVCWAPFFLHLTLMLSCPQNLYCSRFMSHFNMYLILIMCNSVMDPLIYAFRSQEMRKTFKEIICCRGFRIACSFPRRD
T3 sequence (P41968 whole entry): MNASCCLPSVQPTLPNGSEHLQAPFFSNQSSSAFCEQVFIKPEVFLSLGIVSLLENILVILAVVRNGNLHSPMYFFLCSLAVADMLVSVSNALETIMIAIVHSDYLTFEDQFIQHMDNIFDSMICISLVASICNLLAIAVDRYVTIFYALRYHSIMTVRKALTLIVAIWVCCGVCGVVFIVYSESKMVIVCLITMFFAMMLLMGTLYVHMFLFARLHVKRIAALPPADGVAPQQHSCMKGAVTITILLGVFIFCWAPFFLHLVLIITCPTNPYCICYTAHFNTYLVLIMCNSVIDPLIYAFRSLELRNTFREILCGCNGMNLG
T4 sequence (P32245 whole entry): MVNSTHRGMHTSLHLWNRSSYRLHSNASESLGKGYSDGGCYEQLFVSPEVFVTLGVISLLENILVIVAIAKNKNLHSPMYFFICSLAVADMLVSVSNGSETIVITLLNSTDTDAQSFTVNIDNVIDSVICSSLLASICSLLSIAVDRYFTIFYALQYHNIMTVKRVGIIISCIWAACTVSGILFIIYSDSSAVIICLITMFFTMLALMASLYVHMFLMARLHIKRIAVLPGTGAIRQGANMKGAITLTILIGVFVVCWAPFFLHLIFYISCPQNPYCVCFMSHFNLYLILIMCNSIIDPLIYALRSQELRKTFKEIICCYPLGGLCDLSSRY

SMILES | Ratio IC50 [1] | IC50 [2] | EC50 ([3]; read-out: EC50) | max activation [4] | IC50 [5] | max activation [6] | IC50 [7] | IC50 [8] | EC50 ([9]; read-out: EC50) | max activation [10] | max activation [11] | Ratio IC50 [12] | EC50 [13] | EC50 ([14]; hek293) | EC50 ([3]; hek293) | EC50 ([9]; hek293) | EC50 ([14]; read-out: EC50) | Activity [15]
N=C(N)NCCC[C@@H]1NC(=O)[C@@H](Cc2ccccc2)NC(=O)[C@H](Cc2c[nH]cn2)NC(=O)C2(CCC2)NC(=O)CC[C@@H](C(N)=O)NC(=O)[C@H](Cc2c[nH]c3ccccc23)NC1=O ([Ac4c]H[dF]RWE-NH2; lactam N-6) | 7 | 55 nM | 2 nM | 100% | 55 nM | 100% | 380 nM | > 1000 nM | 150 nM | 100% | 75% | 1 | 25 nM | – | – | – | – | –
N=C(N)NCCC[C@@H]1NC(=O)[C@@H](Cc2ccc3ccccc3c2)NC(=O)[C@H](Cc2c[nH]cn2)NC(=O)C2(CCC2)NC(=O)CC[C@@H](C(N)=O)NC(=O)[C@H](Cc2c[nH]c3ccccc23)NC1=O ([Ac4c]H[d2Nal]RWE-NH2; lactam N-6) | – | – | – | – | – | – | – | – | – | – | – | – | – | Not Active | Not Active | Not Active | – | –
N=C(N)NCCC[C@@H]1NC(=O)[C@@H](Cc2ccc3ccccc3c2)NC(=O)[C@H](Cc2c[nH]cn2)NC(=O)C2(CCCCC2)NC(=O)C[C@@H](C(N)=O)NC(=O)[C@H](Cc2c[nH]c3ccccc23)NC1=O | – | 140 nM | 170 nM | 100% | 3.9 nM | 100% | > 1000 nM | 81 nM | 3.2 nM | 60% | 67% | – | 16 nM | – | – | – | 76 nM | –
N=C(N)NCCC[C@@H]1NC(=O)[C@@H](Cc2ccccc2)NC(=O)[C@H](Cc2c[nH]cn2)NC(=O)C2(CCCCC2)NC(=O)C[C@@H](C(N)=O)NC(=O)[C@H](Cc2c[nH]c3ccccc23)NC1=O ([Ac6c]H[dF]RWD-NH2; lactam N-6) | – | – | – | – | – | – | – | – | – | – | – | – | – | – | Not Active | – | – | –
N=C(N)NCCC[C@@H]1NC(=O)[C@@H](Cc2ccccc2)NC(=O)[C@H](Cc2c[nH]cn2)NC(=O)C2(CCCCC2)NC(=O)CC[C@@H](C(N)=O)NC(=O)[C@H](Cc2c[nH]c3ccccc23)NC1=O | – | 99 nM | 1.9 nM | 100% | 74 nM | 100% | 630 nM | > 1000 nM | 120 nM | 100% | 100% | – | 57 nM | – | – | – | 4.1 nM | –
N=C(N)NCCC[C@@H]1NC(=O)[C@@H](Cc2ccc3ccccc3c2)NC(=O)[C@H](Cc2c[nH]cn2)NC(=O)C2(CCC2)NC(=O)C[C@@H](C(N)=O)NC(=O)[C@H](Cc2c[nH]c3ccccc23)NC1=O | – | 112 nM | 560 nM | 100% | 5.1 nM | 100% | > 1000 nM | 320 nM | 270 nM | 50% | 70% | – | 48 nM | – | – | – | 3.2 nM | –
CC1(C)NC(=O)C[C@@H](C(N)=O)NC(=O)[C@H](Cc2c[nH]c3ccccc23)NC(=O)[C@H](CCCNC(=N)N)NC(=O)[C@@H](Cc2ccccc2)NC(=O)[C@H](Cc2c[nH]cn2)NC1=O ([Aib]H[dF]RWD-NH2; lactam N-6) | – | 601 nM | 140 nM | 100% | – | 100% | > 1000 nM | 5.2 nM | 6.7 nM | 100% | 100% | – | 87 nM | – | – | – | 76 nM | –
N=C(N)NCCC[C@@H]1NC(=O)[C@@H](Cc2ccc3ccccc3c2)NC(=O)[C@H](Cc2c[nH]cn2)NC(=O)C2(CCCC2)NC(=O)C[C@@H](C(N)=O)NC(=O)[C@H](Cc2c[nH]c3ccccc23)NC1=O | – | 290 nM | 96 nM | 100% | 16 nM | 100% | 160 nM | 73 nM | 110 nM | 42% | 67% | – | 14 nM | – | – | – | 1.9 nM | –
N=C(N)NCCC[C@@H]1NC(=O)[C@@H](Cc2ccccc2)NC(=O)[C@H](Cc2c[nH]cn2)NC(=O)C2(CCCC2)NC(=O)CC[C@@H](C(N)=O)NC(=O)[C@H](Cc2c[nH]c3ccccc23)NC1=O ([Ac5c]H[dF]RWE-NH2; lactam N-6) | – | 93 nM | – | 100% | 59 nM | 0% | – | > 1000 nM | 1000 nM | 100% | 100% | – | – | – | Not Active | – | – | inactive
N=C(N)NCCC[C@@H]1NC(=O)[C@@H](Cc2ccccc2)NC(=O)[C@H](Cc2c[nH]cn2)NC(=O)C2(CCC2)NC(=O)C[C@@H](C(N)=O)NC(=O)[C@H](Cc2c[nH]c3ccccc23)NC1=O | – | > 1000 nM | – | 100% | > 1000 nM | 0% | > 1000 nM | > 1000 nM | 720 nM | 100% | 43% | – | 60 nM | – | Not Active | – | 276 nM | –
N=C(N)NCCC[C@@H]1NC(=O)[C@@H](Cc2ccc3ccccc3c2)NC(=O)[C@H](Cc2c[nH]cn2)NC(=O)C2(CCCCC2)NC(=O)CC[C@@H](C(N)=O)NC(=O)[C@H](Cc2c[nH]c3ccccc23)NC1=O ([Ac6c]H[d2Nal]RWE-NH2; lactam N-6) | – | – | – | – | – | – | – | – | – | – | – | – | – | Not Active | Not Active | Not Active | – | –
CC1(C)NC(=O)CC[C@@H](C(N)=O)NC(=O)[C@H](Cc2c[nH]c3ccccc23)NC(=O)[C@H](CCCNC(=N)N)NC(=O)[C@@H](Cc2ccc3ccccc3c2)NC(=O)[C@H](Cc2c[nH]cn2)NC1=O ([Aib]H[d2Nal]RWE-NH2; lactam N-6) | – | – | – | – | – | – | – | – | – | – | – | – | – | – | Not Active | – | – | –
N=C(N)NCCC[C@@H]1NC(=O)[C@@H](Cc2ccc3ccccc3c2)NC(=O)[C@H](Cc2c[nH]cn2)NC(=O)C2(CCCC2)NC(=O)CC[C@@H](C(N)=O)NC(=O)[C@H](Cc2c[nH]c3ccccc23)NC1=O ([Ac5c]H[d2Nal]RWE-NH2; lactam N-6) | – | 43 nM | – | 100% | – | 0% | > 1000 nM | 100 nM | 130 nM | 82% | 74% | – | 108 nM | – | Not Active | – | – | –
CC1(C)NC(=O)C[C@@H](C(N)=O)NC(=O)[C@H](Cc2c[nH]c3ccccc23)NC(=O)[C@H](CCCNC(=N)N)NC(=O)[C@@H](Cc2ccc3ccccc3c2)NC(=O)[C@H](Cc2c[nH]cn2)NC1=O ([Aib]H[d2Nal]RWD-NH2; lactam N-6) | – | 180 nM | 18 nM | 100% | – | 24% | 165 nM | 44 nM | 6.7 nM | 83% | 100% | – | 67 nM | – | – | – | 73 nM | –
N=C(N)NCCC[C@@H]1NC(=O)[C@@H](Cc2ccccc2)NC(=O)[C@H](Cc2c[nH]cn2)NC(=O)C2(CCCC2)NC(=O)C[C@@H](C(N)=O)NC(=O)[C@H](Cc2c[nH]c3ccccc23)NC1=O ([Ac5c]H[dF]RWD-NH2; lactam N-6) | – | – | – | – | – | – | – | – | – | – | – | – | – | – | Not Active | – | – | inactive

— ChEMBL document CHEMBL4177763, “Development of Macrocyclic Peptidomimetics Containing Constrained α,α-Dialkylated Amino Acids with Potent and Selective Activity at Human Melanocortin Receptors” (J Med Chem, 2018)
